In US5703085A, “Xanthine derivatives” (Kyowa Hakko Kogyo Co., Ltd., priority 1994, dated 1997):
Where two headings read alike, the source gives them in different places.

How the values were obtained:
[1] = Effect on clonidine-induced aggressive behavior; format: in vivo, male ddY mice; settings: po, clonidine 20 mg/kg ip; for Number of the Biting Attacks (mean ± S.E.M.), Test Compound-Treated Group: 30 min count
Experimental: Effect on Clonidine-Induced Aggressive Behavior
The enhancement effect of the test compounds on the aggressive behavior induced by intraperitoneal administration of clonidine [Eur. J. Pharmacol., 29, 374 (1968)] was investigated.
The experiment was performed using several groups of male ddY mice weighing 20 to 25 g (Japan SLC), each group consisting of two mice. A test compound was suspended in injectable distilled water (manufactured by Otsuka Pharmaceutical Co., Ltd.) after adding Tween 80. Clonidine hydrochloride (manufactured by Sigma Co.) was dissolved in physiological saline solution (manufactured by Otsuka Pharmaceutical Co., Ltd.). The suspension containing the test compound and the suspension containing no test compound (control) were orally administered to the separate groups of the mice (0.1 ml per 10 g of body weight). Sixty minutes after the oral administration of the test compound, clonidine hydrochloride (20 mg/kg) was intraperitoneally administered. The number of biting attacks during the 30 minutes immediately after the clonidine treatment was counted. The effect of the compounds was evaluated by comparing the number of biting attacks of the test compound-administered groups with that of control groups (significance test: Student' t-test).

A2 Receptor = molecular target: T1, A2 Receptor (Rattus norvegicus, UniProt P30543); assay: Adenosine A2 receptor binding test (inhibition of 3H-CGS 21680 binding); settings: rat corpus striatum, 3H-CGS 21680 4.0 nM
T1 construct: from tissue; host or cells: rat corpus striatum (membrane suspension)
Experimental: Adenosine Receptor Antagonistic Activity (Adenosine A2 Receptor Binding Test)
The test was conducted according to the method of Bruns et al. [Mol. Pharmacol., 29, 331 (1986)] with slight modification.
Corpus striatum of a rat was suspended in ice-cooled 50 mM Tris (hydroxymethyl) aminomethane hydrochloride (Tris HCl) buffer (pH 7.7) by using Polytron homogenizer (manufactured by Kinematica Co.). The suspension was centrifuged (50,000×g, 10 minutes), and the precipitate was suspended again in the same amount of 50 mM Tris HCl buffer. The suspension was centrifuged under the same conditions, and the final precipitate was suspended in 50 mM Tris HCl buffer [containing 10 mM magnesium chloride and 0.02 unit/mg tissue of adenosine deaminase (manufactured by Sigma Co.)] to give a tissue concentration of 5 mg (wet weight)/ml.
To 1 ml of the tissue suspension thus prepared were added 50 μl of tritium labeled CGS 21680 {^3 H-2-[p-(2-carboxyethyl) phenethylamino]-5'-(N-ethylcarboxamide)-adenosine: 40 Ci/mmol; manufactured by New England Nuclear Co. [J. Pharmacol. Exp. Ther., 251, 888 (1989)]} (final concentration: 4.0 nM) and 50 μl of a test compound. The resulting mixture was allowed to stand at 25° C. for 120 minutes and then rapidly filtered by suction through a glass fiber filter (GF/C; manufactured by Whatman Co.). The filter was immediately washed three times with 5 ml each of ice-cooled 50 mM Tris HCl buffer, and transferred to a vial, and a scintillator (EX-H; manufactured by Wako Pure Chemical Industries, Ltd.) was added thereto. The radioactivity on the filter was determined with a liquid scintillation counter (manufactured by Packard Instrument Co.).
The inhibition rate of the test compound against the binding of A2 receptors (^3 H-CGS 21680 binding) was calculated by the following equation: [formula] [Notes]B: Amount of the binding in the presence of the test compound.
T: Amount of the total binding.
N: Amount of the nonspecific binding.
Amount of the total binding means the amount of radioactivity of ^3 H-CGS 21680 bound in the absence of the test compound. Amount of the nonspecific binding means the amount of radioactivity of ^3 H-CGS 21680 bound in the presence of 100 μM cyclopentyladenosine (CPA; manufactured by Sigma Co.). Amount of the binding in the presence of the test compound means the amount of radioactivity of ^3 H-CGS 21680 bound in the presence of the test compound at various levels of concentrations.

[2] = Effect on haloperidol-induced catalepsy; format: in vivo, male ddY mice; settings: 10 mg/kg po; for Total Score (catalepsy): 1 h after compound; for inhibition in vivo at 10 mg/kg: Mus musculus, 1 h, decrease in total score vs control group, read-out: Remission Rate (%)
Experimental: Effect on Haloperidol-Induced Catalepsy
Parkinson's disease is a clinical syndrome caused by degeneration and cell death of nigrostriatal dopaminergic neurons. Administration of haloperidol (dopamine D1 /D2 antagonist) induces catalepsy resulting from the blockade of postsynaptic dopamine D2 receptors.
The experiment was carried out using several groups of 5-week-old male ddY mice (weighing 22 to 24 g, Japan SLC), each group consisting of 5 or 10 mice. Haloperidol (manufactured by Janssen Pharmaceutica) was suspended in 0.3% CMC and imtraperitoneally administered to each mouse at a dose of 1.0 mg/kg. A test compound was suspended in injectable distilled water (manufactured by Otsuka Pharmaceutical Co., Ltd.) after adding Tween 80 [polyoxyethylene (20) sorbitan monooleate]. L-DOPA (manufactured by Kyowa Hakko Kogyo Co., Ltd.) and benserazide hydrochloride (manufactured by Kyowa Hakko Kogyo Co., Ltd.) were suspended in 0.3% CMC. One hour after the intraperitoneal administration of haloperidol, the suspension containing the test compound or the suspension containing no test compound [injectable distilled water (manufactured by Otsuka Pharmaceutical Co., Ltd.) containing Tween 80; control] were orally administered to the separate groups of the mice (0.1 ml per 10 g of body weight). One hour after the administration of the test compound, the forelimbs of each mouse and subsequently the hindlimbs of the same mouse were placed on a 4.5 cm-high, 1.0 cm-wide bar and catalepsy was estimated. All of the test compounds were orally administered at a dose of 10 mg/kg, and L-DOPA (100 mg/kg) and benserazide (25 mg/kg) were intraperitoneally administered together as a control. The catalepsy score and the standard of judgment are shown below. […]
Score Duration of the category
0: forelimbs less than 5 seconds
hindlimbs less than 5 seconds
1: forelimbs from 5 (inclusive)
to 10 (exclusive) seconds
2: forelimbs 10 seconds or more
3: (1) forelimbs from 5 (inclusive)
hindlimbs from 5 (inclusive)
or (2) forelimbs less than 5 seconds
hindlimbs 5 seconds or more
4: (1) forelimbs 10 seconds or more
or (2) forelimbs from 5 (inclusive)
hindlimbs 10 seconds or more
5: forelimbs 10 seconds or more
The effect of the compounds was evaluated by the total of the catalepsy scores of 5 or 10 mice in each group (25 or 50 points at the maximum). The groups wherein the total score was not more than 20 or 40 points were estimated to be effective. The number of the animals showing remission against catalepsy is the number of the mice for which the catalepsy score was not more than 4 points in 5 or 10 mice.

[3] = 5 mice (max 25 points; control 25)
[4] = out of 5 mice (score not more than 4)
[5] = out of 10 mice (score not more than 4)

T1 sequence (P30543 whole entry): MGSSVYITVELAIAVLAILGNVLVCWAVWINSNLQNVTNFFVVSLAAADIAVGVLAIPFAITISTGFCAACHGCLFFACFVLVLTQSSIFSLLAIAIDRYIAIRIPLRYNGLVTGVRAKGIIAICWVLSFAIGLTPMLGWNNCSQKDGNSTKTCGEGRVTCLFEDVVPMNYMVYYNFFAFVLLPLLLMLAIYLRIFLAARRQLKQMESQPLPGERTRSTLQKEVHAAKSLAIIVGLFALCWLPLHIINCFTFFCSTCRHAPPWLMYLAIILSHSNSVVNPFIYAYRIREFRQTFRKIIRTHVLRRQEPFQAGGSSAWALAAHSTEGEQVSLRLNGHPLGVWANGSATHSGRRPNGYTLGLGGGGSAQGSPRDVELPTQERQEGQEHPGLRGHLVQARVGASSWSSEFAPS

SMILES | Ratio of Attacks: Test Compd.-Treated Group/Control Group ([1]; 2.5 mg/kg) | Number of the Biting Attacks (mean ± S.E.M.), Test Compound-Treated Group ([1]; 2.5 mg/kg) | A2 Receptor Inhibition Rate (%) (A2 Receptor; 10^-6 M) | A2 Receptor Inhibition Rate (%) (A2 Receptor; 10^-7 M) | Total Score (catalepsy) [2, 3] | Number of Animals Showing Remission [2, 4] | inhibition in vivo at 10 mg/kg ([2]; 5 mice) [%] | Ratio of Attacks: Test Compd.-Treated Group/Control Group ([1]; 0.63 mg/kg) | Number of the Biting Attacks (mean ± S.E.M.), Test Compound-Treated Group ([1]; 0.63 mg/kg) | Ratio of Attacks: Test Compd.-Treated Group/Control Group ([1]; 10 mg/kg) | Number of the Biting Attacks (mean ± S.E.M.), Test Compound-Treated Group ([1]; 10 mg/kg) | Total Score (catalepsy) ([2]; 10 mice (max 50 points)) | Number of Animals Showing Remission [2, 5] | inhibition in vivo at 10 mg/kg ([2]; 10 mice) [%]
CCCn1c(=O)c2c(nc(/C=C/c3ccc(OC(C)=O)c(OC)c3)n2C)n(CCC)c1=O [Compound 4, (E)-8-(4-Acetoxy-3-methoxystyryl)-7-methyl-1,3-dipropylxanthine] | 11.0 | 47.4 ± 11.1 | 98 | 94 | 3 | 5 | 88 |  |  |  |  |  |  | 
CCn1c(=O)c2c(nc(/C=C/c3ccc(OC(C)=O)c(OC)c3)n2C)n(CC)c1=O [Compound 5, (E)-8-(4-Acetoxy-3-methoxystyryl)-1,3-diethyl-7-methylxanthine] |  |  | 100 | 91 | 2 | 5 | 92 | 4.9 | 19.1 ± 6.6 |  |  |  |  | 
CCCn1c(=O)c2c(nc(/C=C/c3ccc(OC(=O)c4ccccc4)c(OC)c3)n2C)n(CCC)c1=O [Compound 6, (E)-8-(4-Benzoyloxy-3-methoxystyryl)-7-methyl-1,3-dipropylxanthine] |  |  | 96 | 81 | 9 | 5 | 64 |  |  | 16.0 | 36.8 ± 10.8 |  |  | 
CCn1c(=O)c2c(nc(/C=C/c3ccc(OC(=O)c4ccccc4)c(OC)c3)n2C)n(CC)c1=O [Compound 7, (E)-8-(4-Benzoyloxy-3-methoxystyryl)-1,3-diethyl-7-methylxanthine] |  |  | 97 | 87 | 14 | 3 | 44 |  |  |  |  |  |  | 
CCC(=O)Oc1ccc(/C=C/c2nc3c(c(=O)n(CC)c(=O)n3CC)n2C)cc1OC [Compound 12, (E)-1,3-Diethyl-8-(3-methoxy-4-propionyloxystyryl)-7-methylxanthine] | 20.3 | 38.5 ± 8.4 | 96 | 86 |  |  |  |  |  |  |  | 10 | 10 | 80
CCn1c(=O)c2c(nc(/C=C/c3ccc(OC(=O)C(C)(C)C)c(OC)c3)n2C)n(CC)c1=O [Compound 13, (E)-1,3-Diethyl-8-(3-methoxy-4-pivaloyloxystyryl)-7-methylxanthine] | 10.1 | 24.3 ± 6.6 |  |  |  |  |  |  |  |  |  | 14 | 9 | 72
CCn1c(=O)c2c(nc(/C=C/c3ccc(OC(C)=O)cc3)n2C)n(CC)c1=O [Compound 14, (E)-8-(4-Acetoxystyryl)-1,3-diethyl-7-methylxanthine] |  |  | 93 | 86 |  |  |  | 4.1 | 21.4 ± 7.4 |  |  | 11 | 10 | 78
CCn1c(=O)c2c(nc(/C=C/c3cc(OC)c(OC(C)=O)c(OC)c3)n2C)n(CC)c1=O [Compound 17, (E)-8-(4-Acetoxy-3,5-dimethoxystyryl)-1,3-diethyl-7-methylxanthine] |  |  | 97 | 80 |  |  |  |  |  |  |  | 30 | 7 | 40
CCn1c(=O)c2c(nc(/C=C/c3cc(OC)c(OC(=O)c4ccccc4)c(OC)c3)n2C)n(CC)c1=O [Compound 18, (E)-8-(4-Benzoyloxy-3,5-dimethoxystyryl)-1,3-diethyl-7-methylxanthine] |  |  | 97 | 82 |  |  |  |  |  |  |  | 30 | 7 | 40
